Legend:
GALAP (Galium) = assay: Postemergence herbicidal evaluation; format: in vivo, Galium aparine; conditions: postemergence
In short: (§1)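 Visual 0–9 rating versus control (stand, vigor, malformation, size, chlorosis, overall appearance), taken four to five weeks post-spray. Two-week-old seedlings received roughly 0.0156–0.500 kg/ha active in acetone/water (50/50) with 0.5% TWEEN 20 via nozzle at 40 psi.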

[1] = test system: IPOHE (Morningglory, Ivyleaf); assay: Postemergence herbicidal evaluation; format: in vivo, Ipomoea hederacea; conditions: postemergence
In short: as §1

SETVI (Foxtail, Green) [2] = assay: Postemergence herbicidal evaluation; format: in vivo, Setaria viridis; conditions: postemergence
In short: as §1

[3] = test system: TRZAWR (Wheat, Winter, cv Riband); assay: Postemergence herbicidal evaluation; format: in vivo, Triticum aestivum; conditions: postemergence
Description: In the tests, seedling plants are grown in jiffy flats for about two weeks. The test compounds are dispersed in 50/50 acetone/water mixtures containing 0.5% TWEEN®20, a polyoxyethylene sorbitan monolaurate surfactant of Atlas Chemical Industries, in sufficient quantities to provide the equivalent of about 0.0156 kg to 0.500 kg per hectare of active compound when applied to the plants through a spray nozzle operating at 40 psi for a predetermined time. After spraying, the plants are placed on greenhouse benches and are cared for in accordance with conventional greenhouse procedures. From four to five weeks after treatment, the seedling plants are examined and rated according to the rating system set forth below. Where more than one test is involved for a given compound, the data are averaged.
Plant species employed in these evaluations are reported by header abbreviation, common name and scientific name.
(§2) Results of herbicide evaluation are expressed on a rating scale (0-9). The scale is based upon a visual observation of plant stand, vigor, malformation, size, chlorosis and overall plant appearance as compared with a control.

ABUTH (Velvetleaf) = assay: Preemergence herbicidal evaluation; format: in vivo, Abutilon theophrasti; conditions: rated 4-5 weeks after treatment
Text: as §2
(§3) The preemergence herbicidal activity of the test compounds of the present invention is exemplified by the following tests in which the seeds of a variety of monocotyledonous and dicotyledonous plants are separately mixed with potting soil and planted on top of approximately one inch of soil in separate pint cups. After planting, the cups are sprayed with the selected aqueous acetone solution containing test compound in sufficient quantity to provide the equivalent of about 0.0156 to 0.500 kg per hectare of test compound per cup. The treated cups are then placed on greenhouse benches, watered and cared for in accordance with conventional greenhouse procedures. From four to five weeks after treatment, the tests are terminated and each cup is examined and rated according to the rating system provided in Example 37.
(§4) The compounds evaluated are reported by compound number given in Example 37.

[4] = test system: IPOHE (Morningglory, Ivyleaf); assay: Preemergence herbicidal evaluation; format: in vivo, Ipomoea hederacea; conditions: rated 4-5 weeks after treatment
Text: as §2, §3, §4

ECHCG (Barnyardgrass) = assay: Preemergence herbicidal evaluation; format: in vivo, Echinochloa crus-galli; conditions: rated 4-5 weeks after treatment
Text: as §2, §3, §4

SETVI (Foxtail, Green) [5] = assay: Preemergence herbicidal evaluation; format: in vivo, Setaria viridis; conditions: rated 4-5 weeks after treatment
Text: as §2, §3, §4

ZEAMX (Corn, Field) = assay: Preemergence herbicidal evaluation; format: in vivo, Zea mays; conditions: rated 4-5 weeks after treatment
Text: as §2, §3, §4

[6] = test system: ECHORC (Watergrass (Calif.)); assay: Preemergence weed control under flooded paddy conditions; format: in vivo, Echinochloa oryzoides; conditions: rated 3-4 weeks after treatment
Description: as §2
(§5) Preemergence herbicidal activity under flooded paddy conditions is determined as follows: plant seeds or propagating organs are planted in the top 0.5 cm of silt loam soil in 32 oz. plastic containers with a diameter of 10.5 cm and no drainage holes. Water is added to these containers and maintained at 1.5 to 3 cm above the soil surface for the duration of the experiment. The test compounds are applied as aqueous/acetone mixtures 50/50 v/v pipetted directly into the flood water to give the equivalent of about 0.0313 to 0.500 kg/ha of active ingredient. The treated containers are placed on greenhouse benches and cared for in accordance with conventional greenhouse procedures. Three to four weeks after treatment, the test is terminated and each container is examined and herbicidal effect rated according to the rating system provided in Example 37. The compounds evaluated are reported by compound number given in Example 37.
(§6) Plant species employed in this example are reported by header abbreviation, common name and scientific name.

CYPIR (Rice Flatsedge) = assay: as above; format: in vivo, Cyperus iria; conditions: rated 3-4 weeks after treatment
Description: as §2, §5, §6

MOOVA (Monochoria) = assay: as above; format: in vivo, Monochoria vaginalis; conditions: rated 3-4 weeks after treatment
In short: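 First, seeds or propagules go into the top 0.5 cm of silt loam; next, water is held 1.5 to 3 cm over the soil; then compound (50/50 acetone/water) is pipetted into it at about 0.0313 to 0.500 kg/ha; finally plants are rated visually 0-9 after three to four weeks.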

[7] = rate 0.0313 kg/ha, rating scale 0-9
[8] = rate 0.0625 kg/ha, rating scale 0-9
[9] = rate 0.1250 kg/ha, rating scale 0-9
[10] = rate 0.2500 kg/ha, rating scale 0-9

With `Cn1c(C(F)(F)F)cc(=O)n(-c2cc(N=C3SCC(=O)N3Cc3ccccn3)c(Cl)cc2F)c1=O` [Compound 131] the “Herbicidal rating GALAP” value (GALAP (Galium); rate 0.0156 kg/ha) was 1.0, the “Herbicidal rating GALAP” value (GALAP (Galium); rate 0.0313 kg/ha) was 3.0 and the “Herbicidal rating GALAP” value (GALAP (Galium); rate 0.0625 kg/ha) was 3.0. The “Herbicidal rating IPOHE” value ([1]; rate 0.0156 kg/ha) was 7.0, the “Herbicidal rating IPOHE” value ([1]; rate 0.0313 kg/ha) was 9.0 and the “Herbicidal rating IPOHE” value ([1]; rate 0.0625 kg/ha) was 9.0. For the same compound, the “Herbicidal rating SETVI” value (SETVI (Foxtail, Green) [2]; rate 0.0156 kg/ha) was 3.0, the “Herbicidal rating SETVI” value (SETVI (Foxtail, Green) [2]; rate 0.0313 kg/ha) was 4.0 and the “Herbicidal rating SETVI” value (SETVI (Foxtail, Green) [2]; rate 0.0625 kg/ha) was 5.0. The “Herbicidal rating TRZAWR” value ([3]; rate 0.0156 kg/ha) was 3.0, the “Herbicidal rating TRZAWR” value ([3]; rate 0.0313 kg/ha) was 3.0 and the “Herbicidal rating TRZAWR” value ([3]; rate 0.0625 kg/ha) was 3.0. For the same compound, the “Preemergence herbicidal rating ABUTH” value (ABUTH (Velvetleaf); [7]) was 0.0, the “Preemergence herbicidal rating ABUTH” value (ABUTH (Velvetleaf); [8]) was 0.0 and the “Preemergence herbicidal rating ABUTH” value (ABUTH (Velvetleaf); [9]) was 2.0. For the same compound, the “Preemergence herbicidal rating ABUTH” value (ABUTH (Velvetleaf); [10]) was 9.0, the “Preemergence herbicidal rating IPOHE” value [4, 7] was 0.0 and the “Preemergence herbicidal rating IPOHE” value [4, 8] was 0.0. The “Preemergence herbicidal rating IPOHE” value [4, 9] was 0.0, the “Preemergence herbicidal rating IPOHE” value [4, 10] was 0.0 and the “Preemergence herbicidal rating ECHCG” value (ECHCG (Barnyardgrass); [7]) was 0.0. The “Preemergence herbicidal rating ECHCG” value (ECHCG (Barnyardgrass); [8]) was 0.0, the “Preemergence herbicidal rating ECHCG” value (ECHCG (Barnyardgrass); [9]) was 0.0 and the “Preemergence herbicidal rating ECHCG” value (ECHCG (Barnyardgrass); [10]) was 2.0. The “Preemergence herbicidal rating SETVI” value (SETVI (Foxtail, Green) [5]; [7]) was 0.0, the “Preemergence herbicidal rating SETVI” value (SETVI (Foxtail, Green) [5]; [8]) was 0.0 and the “Preemergence herbicidal rating SETVI” value (SETVI (Foxtail, Green) [5]; [9]) was 0.0. For the same compound, the “Preemergence herbicidal rating SETVI” value (SETVI (Foxtail, Green) [5]; [10]) was 3.0, the “Preemergence herbicidal rating ZEAMX” value (ZEAMX (Corn, Field); [7]) was 0.0 and the “Preemergence herbicidal rating ZEAMX” value (ZEAMX (Corn, Field); [8]) was 0.0. For the same compound, the “Preemergence herbicidal rating ZEAMX” value (ZEAMX (Corn, Field); [9]) was 0.0, the “Preemergence herbicidal rating ZEAMX” value (ZEAMX (Corn, Field); [10]) was 0.0 and the “herbicidal effect rating, ECHORC” value ([6]; 0.1250 kg/ha) was 2.0. The “herbicidal effect rating, ECHORC” value ([6]; 0.2500 kg/ha) was 4.0, the “herbicidal effect rating, CYPIR” value (CYPIR (Rice Flatsedge); 0.1250 kg/ha) was 0.0 and the “herbicidal effect rating, CYPIR” value (CYPIR (Rice Flatsedge); 0.2500 kg/ha) was 4.0. For the same compound, the “herbicidal effect rating, MOOVA” value (MOOVA (Monochoria); 0.1250 kg/ha) was 0.0 and the “herbicidal effect rating, MOOVA” value (MOOVA (Monochoria); 0.2500 kg/ha) was 2.0.

With `Cc1ccccc1CN1C(=O)CSC1=Nc1cc(-n2c(=O)cc(C(F)(F)F)n(C)c2=O)c(F)cc1Cl` [Compound 129, 3-{4-Chloro-2-fluoro-5-{[3-(o-methylbenzyl)-4-oxo-2-thiazolidinylidene]amino}phenyl}-1-methyl-6-(trifluoromethyl)-2,4 (1H,3H)-pyrimidinedione] the “Herbicidal rating GALAP” value (GALAP (Galium); rate 0.0156 kg/ha) was 2.0, the “Herbicidal rating GALAP” value (GALAP (Galium); rate 0.0313 kg/ha) was 4.0 and the “Herbicidal rating GALAP” value (GALAP (Galium); rate 0.0625 kg/ha) was 4.0. The “Herbicidal rating IPOHE” value ([1]; rate 0.0156 kg/ha) was 9.0, the “Herbicidal rating IPOHE” value ([1]; rate 0.0313 kg/ha) was 9.0 and the “Herbicidal rating IPOHE” value ([1]; rate 0.0625 kg/ha) was 9.0. The “Herbicidal rating SETVI” value (SETVI (Foxtail, Green) [2]; rate 0.0156 kg/ha) was 2.0, the “Herbicidal rating SETVI” value (SETVI (Foxtail, Green) [2]; rate 0.0313 kg/ha) was 3.0 and the “Herbicidal rating SETVI” value (SETVI (Foxtail, Green) [2]; rate 0.0625 kg/ha) was 5.0. For the same compound, the “Herbicidal rating TRZAWR” value ([3]; rate 0.0156 kg/ha) was 3.0, the “Herbicidal rating TRZAWR” value ([3]; rate 0.0313 kg/ha) was 3.5 and the “Herbicidal rating TRZAWR” value ([3]; rate 0.0625 kg/ha) was 3.5. For the same compound, the “Preemergence herbicidal rating ABUTH” value (ABUTH (Velvetleaf); rate 0.0156 kg/ha) was 0.0, the “Preemergence herbicidal rating ABUTH” value (ABUTH (Velvetleaf); rate 0.0313 kg/ha) was 1.0 and the “Preemergence herbicidal rating ABUTH” value (ABUTH (Velvetleaf); rate 0.0625 kg/ha) was 9.0. The “Preemergence herbicidal rating ABUTH” value (ABUTH (Velvetleaf); rate 0.1250 kg/ha) was 9.0, the “Preemergence herbicidal rating ABUTH” value (ABUTH (Velvetleaf); rate 0.2500 kg/ha) was 9.0 and the “Preemergence herbicidal rating IPOHE” value ([4]; rate 0.0156 kg/ha) was 0.0. The “Preemergence herbicidal rating IPOHE” value ([4]; rate 0.0313 kg/ha) was 0.0, the “Preemergence herbicidal rating IPOHE” value ([4]; rate 0.0625 kg/ha) was 0.0 and the “Preemergence herbicidal rating IPOHE” value ([4]; rate 0.1250 kg/ha) was 9.0. For the same compound, the “Preemergence herbicidal rating IPOHE” value ([4]; rate 0.2500 kg/ha) was 9.0, the “Preemergence herbicidal rating ECHCG” value (ECHCG (Barnyardgrass); rate 0.0156 kg/ha) was 0.0 and the “Preemergence herbicidal rating ECHCG” value (ECHCG (Barnyardgrass); rate 0.0313 kg/ha) was 0.0. The “Preemergence herbicidal rating ECHCG” value (ECHCG (Barnyardgrass); rate 0.0625 kg/ha) was 0.0, the “Preemergence herbicidal rating ECHCG” value (ECHCG (Barnyardgrass); rate 0.1250 kg/ha) was 1.0 and the “Preemergence herbicidal rating ECHCG” value (ECHCG (Barnyardgrass); rate 0.2500 kg/ha) was 0.0. For the same compound, the “Preemergence herbicidal rating SETVI” value (SETVI (Foxtail, Green) [5]; rate 0.0156 kg/ha) was 1.0, the “Preemergence herbicidal rating SETVI” value (SETVI (Foxtail, Green) [5]; rate 0.0313 kg/ha) was 1.0 and the “Preemergence herbicidal rating SETVI” value (SETVI (Foxtail, Green) [5]; rate 0.0625 kg/ha) was 1.0. The “Preemergence herbicidal rating SETVI” value (SETVI (Foxtail, Green) [5]; rate 0.1250 kg/ha) was 6.0, the “Preemergence herbicidal rating SETVI” value (SETVI (Foxtail, Green) [5]; rate 0.2500 kg/ha) was 7.0 and the “Preemergence herbicidal rating ZEAMX” value (ZEAMX (Corn, Field); rate 0.0156 kg/ha) was 0.0. The “Preemergence herbicidal rating ZEAMX” value (ZEAMX (Corn, Field); rate 0.0313 kg/ha) was 0.0, the “Preemergence herbicidal rating ZEAMX” value (ZEAMX (Corn, Field); rate 0.0625 kg/ha) was 0.0 and the “Preemergence herbicidal rating ZEAMX” value (ZEAMX (Corn, Field); rate 0.1250 kg/ha) was 1.0. The “Preemergence herbicidal rating ZEAMX” value (ZEAMX (Corn, Field); rate 0.2500 kg/ha) was 1.0, the “herbicidal effect rating, ECHORC” value ([6]; 0.0313 kg/ha) was 9.0 and the “herbicidal effect rating, ECHORC” value ([6]; 0.0625 kg/ha) was 9.0. For the same compound, the “herbicidal effect rating, ECHORC” value ([6]; 0.1250 kg/ha) was 9.0, the “herbicidal effect rating, ECHORC” value ([6]; 0.2500 kg/ha) was 9.0 and the “herbicidal effect rating, CYPIR” value (CYPIR (Rice Flatsedge); 0.0313 kg/ha) was 4.0. For the same compound, the “herbicidal effect rating, CYPIR” value (CYPIR (Rice Flatsedge); 0.0625 kg/ha) was 5.0, the “herbicidal effect rating, CYPIR” value (CYPIR (Rice Flatsedge); 0.1250 kg/ha) was 7.0 and the “herbicidal effect rating, CYPIR” value (CYPIR (Rice Flatsedge); 0.2500 kg/ha) was 9.0. For the same compound, the “herbicidal effect rating, MOOVA” value (MOOVA (Monochoria); 0.0313 kg/ha) was 6.0, the “herbicidal effect rating, MOOVA” value (MOOVA (Monochoria); 0.0625 kg/ha) was 7.0 and the “herbicidal effect rating, MOOVA” value (MOOVA (Monochoria); 0.1250 kg/ha) was 9.0. For the same compound, the “herbicidal effect rating, MOOVA” value (MOOVA (Monochoria); 0.2500 kg/ha) was 9.0.
